Reference: ChEMBL document CHEMBL5338752, “Carbamate JNK3 Inhibitors Show Promise as Effective Treatments for Alzheimer's Disease: In Vivo Studies on Mouse Models” (J Med Chem, 2023)
Calls of active or inactive are those of the source. The calls are words filed in the database; no cut-off is given here.

Key:
[1] = AUC in sixteen hrs fasted Sprague-Dawley rat at 3 mg/kg, po measured upto 24 hrs by LC-MS/MS analysis; assay type: ADME, organism-based; design: time < 24 hrs, dose 3 mg/kg, route po; details: in vivo
[2] = Cmax in sixteen hrs fasted Sprague-Dawley rat at 3 mg/kg, po measured upto 24 hrs by LC-MS/MS analysis; assay type: ADME, organism-based; design: time < 24 hrs, dose 3 mg/kg, route po; details: in vivo
[3] = biological target: Mitogen-activated protein kinase 8 (Homo sapiens, UniProt P45983); assay: Inhibition of JNK1 (unknown origin) using ATF2 as substrate incubated for 40 mins in presence of [gamma33P]ATP by scintillation counting analysis
[4] = biological target: Mitogen-activated protein kinase 9 (Homo sapiens, UniProt P45984); assay: Inhibition of JNK2 (unknown origin) using ATF2 as substrate incubated for 40 mins in presence of [gamma33P]ATP by scintillation counting analysis
[5] = biological target: Mitogen-activated protein kinase 10 (Homo sapiens, UniProt P53779); assay: Inhibition of JNK3 (unknown origin) using ATF2 as substrate incubated for 40 mins in presence of [gamma33P]ATP by scintillation counting analysis
[6] = test system: Neuron; assay: Neuroprotective activity against rat neuron cells assessed as inhibition of Abeta(1-42)-induced cytotoxicity by measuring increase in cell viability at 20 uM incubated for 24 hrs by MTT assay relative to control; assay type: functional
[7] = test system: Neuron; assay: Neuroprotective activity against rat neuron cells assessed as inhibition of Abeta(1-42)-induced cytotoxicity by measuring increase in cell viability at 20 uM incubated for 48 hrs by MTT assay relative to control; assay type: functional
[8] = AUClast in sixteen hrs fasted Sprague-Dawley rat at 3 mg/kg, po measured upto 24 hrs by LC-MS/MS analysis; assay type: ADME, organism-based; design: dose 3 mg/kg, time < 24 hrs, route po; details: in vivo
[9] = Tmax in sixteen hrs fasted Sprague-Dawley rat at 3 mg/kg, po measured upto 24 hrs by LC-MS/MS analysis; assay type: ADME, organism-based; details: in vivo
[10] = Half life in sixteen hrs fasted Sprague-Dawley rat at 3 mg/kg, po measured upto 24 hrs by LC-MS/MS analysis; assay type: ADME, organism-based; details: in vivo
[11] = Effective permeability of compound by […] method; assay type: ADME; details: read-out: Peff
[12] = Apparent permeability of the compound across apical side to basolateral side in human Caco-2 cells; assay type: ADME, cell-based
[13] = Apparent permeability of the compound across basolateral side to apical side in human Caco-2 cells; assay type: ADME, cell-based
[14] = Efflux ratio of apparent permeability across basolateral to apical side to apical to basolateral side in human Caco-2 cells; assay type: ADME, cell-based
[15] = test system: Mus musculus; assay: Anti-alzheimer activity against APP/PS1 dE9 double transgenic mouse model assessed as spontaneous alteration at 30 mg/kg, po administered daily for 2 months and measured after 57 days by Y-maze test (reference value: 45.69+/-2.33%); assay type: functional; details: time 57 day
[16] = test system: Mus musculus; assay: Anti-alzheimer activity against APP/PS1 dE9 double transgenic mouse model assessed as spontaneous alteration at 60 mg/kg, po administered daily for 2 months and measured after 57 days by Y-maze test (reference value: 45.69+/-2.33%); assay type: functional; details: time 57 day
[17] = test system: Mus musculus; assay: Anti-alzheimer activity against APP/PS1 dE9 double transgenic mouse model assessed as escape latency time at 30 mg/kg, po administered daily for 2 months and measured after 60 days by Passive avoidance test (reference value: 55.3+/-8.2 sec); assay type: functional; details: time 60 day
[18] = test system: Mus musculus; assay: Anti-alzheimer activity against APP/PS1 dE9 double transgenic mouse model assessed as escape latency time at 60 mg/kg, po administered daily for 2 months and measured after 60 days by Passive avoidance test (reference value: 55.3+/-8.2 sec); assay type: functional; details: time 60 day
[19] = test system: Mus musculus; assay: Anti-alzheimer activity against APP/PS1 dE9 double transgenic mouse model assessed as time spent in platform quadrant at 30 mg/kg, po administered daily for 2 months and measured after 74 days by Morris water maze test (reference value: 14.40+/-1.60 %); assay type: functional; details: time 74 day
[20] = test system: Mus musculus; assay: Anti-alzheimer activity against APP/PS1 dE9 double transgenic mouse model assessed as time spent in platform quadrant at 60 mg/kg, po administered daily for 2 months and measured after 74 days by Morris water maze test (reference value: 14.40+/-1.60 %); assay type: functional; details: time 74 day
[21] = test system: Mus musculus; assay: Anti-alzheimer activity against APP/PS1 dE9 double transgenic mouse model assessed as time spent in target zone at 30 mg/kg, po administered daily for 2 months and measured after 74 days by Morris water maze test (reference value: 10.56+/-1.59 %); assay type: functional; details: time 74 day
[22] = test system: Mus musculus; assay: Anti-alzheimer activity against APP/PS1 dE9 double transgenic mouse model assessed as time spent in target zone at 60 mg/kg, po administered daily for 2 months and measured after 74 days by Morris water maze test (reference value: 10.56+/-1.59 %); assay type: functional; details: time 74 day
[23] = AUC in sixteen hrs fasted Sprague-Dawley rat at 1 mg/kg, iv measured upto 24 hrs by LC-MS/MS analysis; assay type: ADME, organism-based; design: time < 24 hrs, dose 1 mg/kg, route iv; details: in vivo
[24] = Cmax in sixteen hrs fasted Sprague-Dawley rat at 1 mg/kg, iv measured upto 24 hrs by LC-MS/MS analysis; assay type: ADME, organism-based; design: dose 1 mg/kg, time < 24 hrs, route iv; details: in vivo
[25] = biological target: Mitogen-activated protein kinase 10 (Rattus norvegicus) (UniProt P49187); assay: Inhibition of anisomycin induced JNK3 activation in rat cortex neuron cells assessed as reduction in Jun phosphorylation levels at 10 to 20 uM preincubated for 90 mins followed by anisomycin addition and measured after 40 mins by Western blot analysis; assay type: cell-based; details: dose 10-20 µM, time 130.0 min
[26] = biological target: Mitogen-activated protein kinase 10 (Rattus norvegicus) (UniProt P49187); assay: Inhibition of A-beta (1 to 42) induced JNK3 activation in rat cortex neuron cells assessed as reduction in c-Jun phosphorylation levels at 10 to 20 uM incubated for 24 hrs in presence of A-beta (1 to 42) by Western blot analysis; assay type: cell-based; details: dose 10-20 µM
[27] = test system: Neuron; assay: Inhibition of apoptosis in rat cortex neuron cells assessed as prevention of A-beta (1 to 42) induced cleaved caspase-3 formation at 10 to 20 uM measured after 24 hrs by Western blot analysis; assay type: functional, cell-based; details: dose 10-20 µM
[28] = test system: Neuron; assay: Inhibition of apoptosis in rat cortex neuron cells assessed as prevention of A-beta (1 to 42) induced cleaved PARP formation at 10 to 20 uM measured after 24 hrs by Western blot analysis; assay type: functional, cell-based; details: dose 10-20 µM
[29] = biological target: Mitogen-activated protein kinase 10 (Rattus norvegicus) (UniProt P49187); assay: Inhibition of anisomycin induced JNK3 activation in rat cortex neuron cells assessed as inhibition of APP phosphorylation at 10 to 20 uM preincubated for 90 mins followed by anisomycin addition and measured after 40 mins by Western blot analysis; assay type: cell-based; details: dose 10-20 µM

Mitogen-activated protein kinase 8, sequence (P45983 whole entry): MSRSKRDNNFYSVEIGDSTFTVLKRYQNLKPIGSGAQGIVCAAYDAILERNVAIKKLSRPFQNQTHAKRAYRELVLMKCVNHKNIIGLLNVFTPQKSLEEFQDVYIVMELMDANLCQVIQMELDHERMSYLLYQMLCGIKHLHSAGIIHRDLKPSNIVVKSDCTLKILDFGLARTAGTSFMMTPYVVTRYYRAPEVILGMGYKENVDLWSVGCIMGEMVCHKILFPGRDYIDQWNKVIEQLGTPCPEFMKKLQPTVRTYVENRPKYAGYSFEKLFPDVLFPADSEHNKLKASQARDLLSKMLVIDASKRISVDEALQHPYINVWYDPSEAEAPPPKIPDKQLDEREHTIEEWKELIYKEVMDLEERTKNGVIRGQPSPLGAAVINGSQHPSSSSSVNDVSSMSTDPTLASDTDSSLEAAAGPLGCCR
Mitogen-activated protein kinase 9, sequence (P45984 whole entry): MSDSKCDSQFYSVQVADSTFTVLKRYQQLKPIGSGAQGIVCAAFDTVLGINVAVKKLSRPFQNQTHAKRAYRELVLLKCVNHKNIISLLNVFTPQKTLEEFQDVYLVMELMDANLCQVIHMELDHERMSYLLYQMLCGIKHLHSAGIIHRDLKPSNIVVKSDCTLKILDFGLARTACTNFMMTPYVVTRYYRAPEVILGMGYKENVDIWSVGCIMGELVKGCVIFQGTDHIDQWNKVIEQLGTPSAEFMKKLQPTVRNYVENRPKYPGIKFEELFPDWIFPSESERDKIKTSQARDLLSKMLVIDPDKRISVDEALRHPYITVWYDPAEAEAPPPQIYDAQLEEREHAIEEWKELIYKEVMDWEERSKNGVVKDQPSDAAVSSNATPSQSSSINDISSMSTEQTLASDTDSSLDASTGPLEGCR
Mitogen-activated protein kinase 10 (Rattus norvegicus), sequence (P49187 whole entry): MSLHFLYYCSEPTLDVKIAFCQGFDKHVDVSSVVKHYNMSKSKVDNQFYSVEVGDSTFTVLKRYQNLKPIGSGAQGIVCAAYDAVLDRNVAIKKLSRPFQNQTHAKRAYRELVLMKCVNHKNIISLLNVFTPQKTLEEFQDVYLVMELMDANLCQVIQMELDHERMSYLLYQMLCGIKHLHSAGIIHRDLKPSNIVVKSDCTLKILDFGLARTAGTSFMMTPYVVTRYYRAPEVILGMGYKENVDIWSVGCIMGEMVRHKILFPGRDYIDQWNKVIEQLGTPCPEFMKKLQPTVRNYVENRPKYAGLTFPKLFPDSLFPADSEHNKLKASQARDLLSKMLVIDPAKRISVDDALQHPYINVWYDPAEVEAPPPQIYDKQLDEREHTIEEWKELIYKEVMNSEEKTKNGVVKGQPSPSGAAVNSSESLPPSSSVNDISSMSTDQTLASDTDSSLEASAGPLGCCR
Mitogen-activated protein kinase 10, sequence (P53779 whole entry): as the sequence (P49187 whole entry) above, with H27Q, S32Y, V33I, V34A counted along it

| SMILES | AUC at 24 h [1] | Cmax [2] | IC50 [3] | IC50 [4] | Activity [6] | Activity [7] | Papp [11] | other results |
| --- | --- | --- | --- | --- | --- | --- | --- | --- |
| CCNC(=O)Oc1ccc2nc(-c3ccc4ccccc4c3)n(-c3ccnc(N[C@H]4CCCN(C(=O)C5CC5)C4)n3)c2c1 | 260 ng·h/mL | 253 ng/mL | – | – | – | – | – | – |
| CNC(=O)Oc1ccc2nc(-c3ccc4ccccc4c3)n(-c3ccnc(N[C@H]4CCCN(C(=O)C5CC5)C4)n3)c2c1 | 351 ng·h/mL | 342 ng/mL | 1040 nM | 973 nM | 34.8% | 17.2% | 67.2 ×10⁻⁶ cm/s | IC50 [5]: 53 nM; AUC(0-t) at 24 h [8]: 351 ng·h/mL; Tmax [9]: 23.4 min; half-life [10]: 39 min; Papp A→B [12]: 4.9 ×10⁻⁶ cm/s; Papp B→A [13]: 11.3 ×10⁻⁶ cm/s; efflux ratio [14]: 2.31; Activity [15]: 52.7%; Activity [16]: 53.46%; Time [17]: 61.6 s; Time [18]: 59.3 s; Activity [19]: 16.84%; Activity [20]: 21.12%; Activity [21]: 12.57%; Activity [22]: 16.42% |
| NC(=O)Oc1ccc2nc(-c3ccc4ccccc4c3)n(-c3ccnc(N[C@H]4CCCN(C(=O)C5CC5)C4)n3)c2c1 | 345 ng·h/mL | 277 ng/mL | – | – | – | – | – | – |
| CC(=O)[C@H]1CC[C@H]2[C@@H]3CCC4=CC(=O)CC[C@]4(C)[C@H]3CC[C@]12C [PROGESTERONE] | – | – | – | – | – | – | 26.5 ×10⁻⁶ cm/s | – |
| N#CCc1cnc(-c2ccc3ccccc3c2)n1-c1ccnc(N[C@H]2CCCN(C(=O)C3CC3)C2)n1 | 392 ng·h/mL | – | – | – | 14.1% | – | – | AUC at 24 h [23]: 614 ng·h/mL; Cmax [24]: 1120 ng/mL |
| CN(C)C(=O)Oc1ccc2nc(-c3ccc4ccccc4c3)n(-c3ccnc(N[C@H]4CCCN(C(=O)C5CC5)C4)n3)c2c1 | 554 ng·h/mL | 483 ng/mL | – | – | – | – | – | – |
| O=C(C1CC1)N1CCC[C@H](Nc2nccc(-n3c(-c4ccc5ccccc5c4)nc4ccc(O)cc43)n2)C1 | – | – | 301 nM | 125 nM | 41.2% | 21.8% | 35.1 ×10⁻⁶ cm/s | AUC at 24 h [23]: 349 ng·h/mL; Cmax [24]: 1510 ng/mL |
| O=C(C1CC1)N1CCC[C@H](Nc2nccc(-n3c(-c4ccc5ccccc5c4)nc4c(F)cc(O)cc43)n2)C1 | – | 423 ng/mL | 705 nM | 151 nM | 59.5% | 35.2% | 22.9 ×10⁻⁶ cm/s | IC50 [5]: 10 nM; inhibition [25]: Active; inhibition [26]: Active; inhibition [27]: Active; inhibition [28]: Active; inhibition [29]: Active |
